Structures can show the parent of a compound that is named as a salt.
Assays:
[1] = molecular target: human histamine H1 receptor (Homo sapiens, UniProt P35367); assay: Evaluation of Human H1 Receptor Affinity ([3H]pyrilamine binding); design: purchased PerkinElmer Inc; host or cells: CHO-K1; conditions: inhibition constant Ki, CHO-K1 membrane preparation
Procedure, shortened: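 Ki values are Cheng-Prusoff conversions of IC50 (Kd 1.1 nM) from radioligand displacement of 1.2 nM [3H]pyrilamine, with 1.0 μM pyrilamine defining nonspecific binding.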

[2] = molecular target: T1, human histamine H4 receptor (Homo sapiens, UniProt Q9H3N8); assay: Evaluation of Human H4 Receptor Affinity ([3H]histamine binding); conditions: inhibition constant Ki, CHO-K1 membrane preparation, read-out: Evaluation of H4 Receptor Affinity
T1 construct: purchased PerkinElmer Inc; host or cells: CHO-K1
Procedure, shortened: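 Radioligand displacement: compound competes with 8.2 nM [3H]histamine at recombinant human H4 receptor in CHO-K1 membranes (Tris-HCl 50 mM pH 7.4, EDTA 1.25 mM; 25 °C, 90 min), with filter-bound radioactivity counted. IC50 was converted to Ki via Cheng-Prusoff (Kd 5.7 nM); 1.0 μM histamine set nonspecific binding.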

T1 sequence (Q9H3N8 whole entry): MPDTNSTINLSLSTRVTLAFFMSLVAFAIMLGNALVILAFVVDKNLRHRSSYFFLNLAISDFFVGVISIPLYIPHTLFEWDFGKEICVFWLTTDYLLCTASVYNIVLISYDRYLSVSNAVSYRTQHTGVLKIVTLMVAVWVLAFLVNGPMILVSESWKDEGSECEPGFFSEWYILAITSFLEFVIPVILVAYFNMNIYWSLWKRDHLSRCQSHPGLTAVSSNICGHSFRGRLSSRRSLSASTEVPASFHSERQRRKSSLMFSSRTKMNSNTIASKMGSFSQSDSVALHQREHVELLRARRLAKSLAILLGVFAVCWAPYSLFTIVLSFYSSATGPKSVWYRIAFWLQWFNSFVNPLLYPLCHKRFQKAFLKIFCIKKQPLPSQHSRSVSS
Sequence of human histamine H1 receptor (P35367 whole entry): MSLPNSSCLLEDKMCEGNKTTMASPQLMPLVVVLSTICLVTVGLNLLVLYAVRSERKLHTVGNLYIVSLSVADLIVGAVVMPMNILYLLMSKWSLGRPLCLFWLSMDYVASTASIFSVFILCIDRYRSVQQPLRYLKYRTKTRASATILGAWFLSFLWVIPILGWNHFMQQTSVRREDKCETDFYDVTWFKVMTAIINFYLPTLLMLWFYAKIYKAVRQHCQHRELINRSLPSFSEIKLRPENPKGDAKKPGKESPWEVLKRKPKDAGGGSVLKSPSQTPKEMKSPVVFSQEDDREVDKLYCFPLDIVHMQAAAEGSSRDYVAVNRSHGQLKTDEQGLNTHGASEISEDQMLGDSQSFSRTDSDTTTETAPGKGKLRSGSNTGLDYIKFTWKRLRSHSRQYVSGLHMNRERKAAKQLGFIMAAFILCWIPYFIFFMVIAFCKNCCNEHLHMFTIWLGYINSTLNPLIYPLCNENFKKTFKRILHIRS

`CC(OCCOCCN1CCN(c2nc(N)nc3c2CCc2cc(OCc4ccc(Cl)cc4)ccc2-3)CC1)C(=O)O` (centres unmarked) [Example 121, 2-(2-(2-(4-(2-amino-8-((4-chlorobenzyl)oxy)-5,6-dihydrobenzo[h]quinazolin-4-yl)piperazin-1-yl)ethoxy)ethoxy)propanoic acid dihydrochloride] showed a Ki [1] of under 100 nM and a Ki [2] of 100 to 500 nM.
`CC(OCCCCN1CCN(c2nc(N)nc3c2CCc2cc(OCc4ccc(Cl)cc4)ccc2-3)CC1)C(=O)O` (centres unmarked) [Example 123, 2-(4-(4-(2-amino-8-((4-chlorobenzyl)oxy)-5,6-dihydrobenzo[h]quinazolin-4-yl)piperazin-1-yl)butoxy)propanoic acid] gave a Ki [1] of under 100 nM and a Ki [2] of 100 to 500 nM.
With `Nc1nc2c(c(N3CCN(CCOCCOCC(=O)O)CC3)n1)CCc1cc(OCc3ccc(F)cc3)ccc1-2` [Example 124, 2-(2-(2-(4-(2-amino-8-((4-fluorobenzyl)oxy)-5,6-dihydrobenzo[h]quinazolin-4-yl)piperazin-1-yl)ethoxy)ethoxy)acetic acid] the Ki [1] was under 100 nM and the Ki [2] was under 100 nM.
With `Nc1nc2c(c(N3CCN(CC(=O)NCCCC(=O)O)CC3)n1)CCc1cc(OCc3ccc(Cl)cc3)ccc1-2` [Example 125, 4-(2-(4-(2-amino-8-((4-chlorobenzyl)oxy)-5,6-dihydrobenzo[h]quinazolin-4-yl)piperazin-1-yl)acetamido)butanoic acid dihydrochloride] the Ki [1] was under 100 nM and the Ki [2] was 100 to 500 nM.
`CCC(OCCOCCN1CCN(c2nc(N)nc3c2CCc2cc(OCc4ccc(Cl)cc4)ccc2-3)CC1)C(=O)O` (centres unmarked) [Example 126, 2-(2-(2-(4-(2-amino-8-((4-chlorobenzyl)oxy)-5,6-dihydrobenzo[h]quinazolin-4-yl)piperazin-1-yl)ethoxy)ethoxy)butanoic acid] was tested, and the Ki [1] was under 100 nM and the Ki [2] was under 100 nM.
Work on `Nc1nc2c(c(N3CCN(CCOc4cccc(CC(=O)O)c4)CC3)n1)CCc1cc(OCc3ccc(Cl)cc3)ccc1-2` [Example 130, 2-(3-(2-(4-(2-amino-8-((4-chlorobenzyl)oxy)-5,6-dihydrobenzo[h]quinazolin-4-yl)piperazin-1-yl)ethoxy)phenyl)acetic acid] yielded a Ki [1] of under 100 nM and a Ki [2] of 100 to 500 nM.
Work on `Nc1nc2c(c(N3CCN(CCCCn4cc(C(=O)O)cn4)CC3)n1)CCc1cc(OCc3ccc(Cl)cc3)ccc1-2` [Example 132, 1-(4-(4-(2-amino-8-((4-chlorobenzyl)oxy)-5,6-dihydrobenzo[h]quinazolin-4-yl)piperazin-1-yl)butyl)-1H-pyrazole-4-carboxylic acid dihydrochloride] yielded a Ki [1] of under 100 nM and a Ki [2] of 100 to 500 nM.
Compound `Nc1nc2c(c(N3CCN(CCOCCn4cc(C(=O)O)cn4)CC3)n1)CCc1cc(OCc3ccc(Cl)cc3)ccc1-2` [Example 133, 1-(2-(2-(4-(2-amino-8-((4-chlorobenzyl)oxy)-5,6-dihydrobenzo[h]quinazolin-4-yl)piperazin-1-yl)ethoxy)ethyl)-1H-pyrazole-4-carboxylic acid dihydrochloride] has a Ki [1] of under 100 nM and a Ki [2] of under 100 nM.
`Nc1nc2c(c(N3CCN(CCCCOc4ccc(C(=O)O)cc4)CC3)n1)CCc1cc(OCc3ccc(Cl)cc3)ccc1-2` [Example 134, 4-(4-(4-(2-amino-8-((4-chlorobenzyl)oxy)-5,6-dihydrobenzo[h]quinazolin-4-yl)piperazin-1-yl)butoxy)benzoic acid hydrochloride] showed a Ki [1] of under 100 nM and a Ki [2] of 100 to 500 nM.
`Nc1nc2c(c(N3CCN(CCOc4ccccc4CC(=O)O)CC3)n1)CCc1cc(OCc3ccc(Cl)cc3)ccc1-2` [Example 136, 2-(2-(2-(4-(2-amino-8-((4-chlorobenzyl)oxy)-5,6-dihydrobenzo[h]quinazolin-4-yl)piperazin-1-yl)ethoxy)phenyl)acetic acid dihydrochloride] was tested, and the Ki [1] was under 100 nM and the Ki [2] was 100 to 500 nM.
For `Nc1nc2c(c(N3CCN(CCOc4ccc(CC(=O)O)cc4)CC3)n1)CCc1cc(OCc3ccc(Cl)cc3)ccc1-2` [Example 137, 2-(4-(2-(4-(2-amino-8-((4-chlorobenzyl)oxy)-5,6-dihydrobenzo[h]quinazolin-4-yl)piperazin-1-yl)ethoxy)phenyl)acetic acid dihydrochloride], the Ki [1] was under 100 nM and the Ki [2] was under 100 nM.
With `Nc1nc2c(c(N3CCN(CCOCCn4ccc(C(=O)O)n4)CC3)n1)CCc1cc(OCc3ccc(Cl)cc3)ccc1-2` [Example 138, 1-(2-(2-(4-(2-amino-8-((4-chlorobenzyl)oxy)-5,6-dihydrobenzo[h]quinazolin-4-yl)piperazin-1-yl)ethoxy)ethyl)-1H-pyrazole-3-carboxylic acid dihydrochloride] the Ki [1] was under 100 nM and the Ki [2] was 100 to 500 nM.
For `Nc1nc2c(c(N3CCN(CCc4cccc(OCC(=O)O)c4)CC3)n1)CCc1cc(OCc3ccc(Cl)cc3)ccc1-2` [Example 139, 2-(3-(2-(4-(2-amino-8-((4-chlorobenzyl)oxy)-5,6-dihydrobenzo[h]quinazolin-4-yl)piperazin-1-yl)ethyl)phenoxy)acetic acid dihydrochloride], the Ki [1] was under 100 nM and the Ki [2] was 100 to 500 nM.
Work on `Nc1nc2c(c(N3CCN(CCc4ccc(OCC(=O)O)cc4)CC3)n1)CCc1cc(OCc3ccc(Cl)cc3)ccc1-2` [Example 140, 2-(4-(2-(4-(2-amino-8-((4-chlorobenzyl)oxy)-5,6-dihydrobenzo[h]quinazolin-4-yl)piperazin-1-yl)ethyl)phenoxy)acetic acid dihydrochloride] yielded a Ki [1] of under 100 nM and a Ki [2] of 100 to 500 nM.
Compound `Nc1nc2c(c(N3CCN(CCCCOC4CC(C(=O)O)C4)CC3)n1)CCc1cc(OCc3ccc(Cl)cc3)ccc1-2` (centres unmarked) [Example 141, 3-(4-(4-(2-amino-8-((4-chlorobenzyl)oxy)-5,6-dihydrobenzo[h]quinazolin-4-yl)piperazin-1-yl)butoxy)cyclobutane-1-carboxylic acid dihydrochloride] has a Ki [1] of under 100 nM and a Ki [2] of 100 to 500 nM.
`Nc1nc2c(c(N3CCN(CCOCc4nc(C(=O)O)cs4)CC3)n1)CCc1cc(OCc3ccc(OC(F)(F)F)cc3)ccc1-2` [Example 142, 2-((2-(4-(2-amino-8-((4-(trifluoromethoxy)benzyl)oxy)-5,6-dihydrobenzo[h]quinazolin-4-yl)piperazin-1-yl)ethoxy)methyl)thiazole-4-carboxylic acid dihydrochloride] showed a Ki [1] of under 100 nM and a Ki [2] of under 100 nM.
Work on `Nc1nc2c(c(N3CCN(CCCOCc4nnn[nH]4)CC3)n1)CCc1cc(OCc3ccc(Cl)cc3)ccc1-2` [Example 144, 4-(4-(3-((tetrazol-5-yl)methoxy)propyl)piperazin-1-yl)-8-((4-chlorobenzyl)oxy)-5,6-dihydrobenzo[h]quinazolin-2-amine bis(trifluoroacetate)] yielded a Ki [1] of under 100 nM and a Ki [2] of under 100 nM.
`Nc1nc2c(c(N3CCN(CCCCOCc4nnn[nH]4)CC3)n1)CCc1cc(OCc3ccc(Cl)cc3)ccc1-2` [Example 145, 4-(4-(4-((tetrazol-5-yl)methoxy)butyl)piperazin-1-yl)-8-((4-chlorobenzyl)oxy)-5,6-dihydrobenzo[h]quinazolin-2-amine bis(trifluoroacetate)] showed a Ki [1] of under 100 nM and a Ki [2] of under 100 nM.
For `Nc1nc2c(c(N3CCN(CCO[C@H]4C[C@@H]5[C@H](C4)[C@H]5C(=O)O)CC3)n1)CCc1cc(OCc3ccc(OC(F)(F)F)cc3)ccc1-2` [Example 146, (1R,3r,5S,6r)-3-(2-(4-(2-amino-8-((4-(trifluoromethoxy)benzyl)oxy)-5,6-dihydrobenzo[h]quinazolin-4-yl)piperazin-1-yl)ethoxy)bicyclo[3.1.0]hexane-6-carboxylic acid], the Ki [1] was under 100 nM and the Ki [2] was 100 to 500 nM.

Reference: patent US20190047966A1, “NOVEL COMPOUND AND PHARMACOLOGICALLY ACCEPTABLE SALT THEREOF” (MEIJI SEIKA PHARMA CO., LTD., priority 2016, published 2019)
